Measurements taken from patent publication US7704995B2 (Exelixis, Inc., priority 2003, dated 2010).

Target: T1, Chk1 (Homo sapiens, UniProt O14757)
T1 construct: purchased Upstate Biotechnology
T1 sequence (O14757 1-476): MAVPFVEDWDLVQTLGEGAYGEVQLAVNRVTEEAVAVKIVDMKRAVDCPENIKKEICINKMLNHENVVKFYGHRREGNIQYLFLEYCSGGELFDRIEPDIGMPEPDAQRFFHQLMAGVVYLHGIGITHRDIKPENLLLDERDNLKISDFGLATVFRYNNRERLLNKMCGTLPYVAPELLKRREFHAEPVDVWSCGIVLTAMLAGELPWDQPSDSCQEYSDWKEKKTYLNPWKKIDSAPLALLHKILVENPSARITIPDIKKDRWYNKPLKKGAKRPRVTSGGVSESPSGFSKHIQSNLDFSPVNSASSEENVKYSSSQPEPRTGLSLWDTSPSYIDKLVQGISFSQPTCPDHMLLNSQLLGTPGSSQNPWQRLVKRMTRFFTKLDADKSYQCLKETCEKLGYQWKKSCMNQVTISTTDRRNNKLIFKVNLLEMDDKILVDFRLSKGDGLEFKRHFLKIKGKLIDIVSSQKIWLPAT
Test: Chk1 kinase assay: incorporation of γ-33P ATP into immobilized myelin basic protein
Format: biochemical
Details: Table 11; Chk1 only; read-out: Chk1 IC50
How it was run: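 Plates coated with MBP, then kinase reactions in Hepes pH 7.6 buffer with 10 mM MgCl2 and 1% DMSO were started by adding unlabeled plus γ-33P ATP (10 μM for Chk1 at 10 nM enzyme; 30 μM for Chk2 at 20 nM enzyme). After 1 h at room temperature, plates were washed and counted.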

CNC(=O)c1nc(-c2cccc(CN[C@H]3c4ccccc4C[C@H]3O)c2)cnc1N [Example 453, 3-amino-6-[3-({[(1S,2R)-2-hydroxy-2,3-dihydro-1H-inden-1-yl]amino}methyl)phenyl]-N-methylpyrazine-2-carboxamide]
IC50: < 0.05 µM

CNC(=O)c1nc(-c2cccc(CN[C@H]3CCc4ccccc4C3)c2)cnc1N [Example 454, 3-amino-N-methyl-6-(3-{[(2S)-1,2,3,4-tetrahydronaphthalen-2-ylamino]methyl}phenyl)pyrazine-2-carboxamide]
IC50: < 0.05 µM

COC(=O)c1nc(-c2cccc(CNC3CCc4c(F)ccc(F)c43)c2)cnc1N (centres unmarked) [Example 455, methyl 3-amino-6-(3-{[(4,7-difluoro-2,3-dihydro-1H-inden-1-yl)amino]methyl}phenyl)pyrazine-2-carboxylate]
IC50: 0.05 to 1 µM

CNC(=O)c1nc(-c2cccc(CNC3Cc4ccc(Br)cc4C3)c2)cnc1N (centres unmarked) [Example 456, 3-amino-6-(3-{[(5-bromo-2,3-dihydro-1H-inden-2-yl)amino]methyl}phenyl)-N-methylpyrazine-2-carboxamide]
IC50: 0.05 to 1 µM

CNC(=O)c1nc(-c2cccc(CNCc3cc(-c4cccs4)ccc3F)c2)cnc1N [Example 457, 3-amino-6-{3-[({[2-fluoro-5-(2-thienyl)phenyl]methyl}amino)methyl]phenyl}-N-methylpyrazine-2-carboxamide]
IC50: 0.05 to 1 µM

C=Cc1ccc(CNCc2cccc(-c3cnc(N)c(C(=O)NC)n3)c2)c(F)c1 [Example 458, 3-amino-6-[3-({[(4-ethenyl-2-fluorophenyl)methyl]amino}methyl)phenyl]-N-methylpyrazine-2-carboxamide]
IC50: 0.05 to 1 µM

CNC(=O)c1nc(-c2cccc(CNC3CC(C)c4c(F)ccc(F)c43)c2)cnc1N (centres unmarked) [Example 459, 3-amino-6-(3-{[(4,7-difluoro-3-methyl-2,3-dihydro-1H-inden-1-yl)amino]methyl}phenyl)-N-methylpyrazine-2-carboxamide]
IC50: 0.05 to 1 µM

CNC(=O)c1nc(-c2cccc(CN[C@H]3c4ccccc4C[C@H]3OC)c2)cnc1N [Example 460, 3-amino-N-methyl-6-[3-({[(1S,2R)-2-(methyloxy)-2,3-dihydro-1H-inden-1-yl]amino}methyl)phenyl]pyrazine-2-carboxamide]
IC50: 0.05 to 1 µM

CNC(=O)c1nc(-c2cccc(CNC3CCc4cc(Br)ccc43)c2)cnc1N (centres unmarked) [Example 461, 3-amino-6-(3-{[(5-bromo-2,3-dihydro-1H-inden-1-yl)amino]methyl}phenyl)-N-methylpyrazine-2-carboxamide]
IC50: 0.05 to 1 µM

CNC(=O)c1nc(-c2cccc(CN[C@H]3CCc4cc(Br)ccc4C3)c2)cnc1N [Example 462, 3-amino-6-[3-({[(2S)-6-bromo-1,2,3,4-tetrahydronaphthalen-2-yl]amino}methyl)phenyl]-N-methylpyrazine-2-carboxamide]
IC50: < 0.05 µM

CNC(=O)c1nc(-c2cccc(CN[C@@H]3CCc4cc(Br)ccc4C3)c2)cnc1N [Example 463, 3-amino-6-[3-({[(2R)-6-bromo-1,2,3,4-tetrahydronaphthalen-2-yl]amino}methyl)phenyl]-N-methylpyrazine-2-carboxamide]
IC50: 0.05 to 1 µM

CNC(=O)c1nc(-c2cccc(CNC3CCc4cc(F)ccc43)c2)cnc1N (centres unmarked) [Example 464, 3-amino-6-(3-{[(5-fluoro-2,3-dihydro-1H-inden-1-yl)amino]methyl}phenyl)-N-methylpyrazine-2-carboxamide]
IC50: 0.05 to 1 µM

CNC(=O)c1nc(-c2cccc(CN[C@H]3Cc4ccc(Br)cc4C3)c2)cnc1N [Example 465, 3-amino-6-[3-({[(2S)-5-bromo-2,3-dihydro-1H-inden-2-yl]amino}methyl)phenyl]-N-methylpyrazine-2-carboxamide]
IC50: < 0.05 µM

CNC(=O)c1nc(-c2cccc(CNC3Cc4cccc(F)c4C3)c2)cnc1N (centres unmarked) [Example 466, 3-amino-6-(3-{[(4-fluoro-2,3-dihydro-1H-inden-2-yl)amino]methyl}phenyl)-N-methylpyrazine-2-carboxamide]
IC50: < 0.05 µM

CNC(=O)c1nc(-c2cccc(CNC3Cc4c(F)cccc4C3O)c2)cnc1N (centres unmarked) [Example 467, 3-amino-6-(3-{[(4-fluoro-1-hydroxy-2,3-dihydro-1H-inden-2-yl)amino]methyl}phenyl)-N-methylpyrazine-2-carboxamide]
IC50: 0.05 to 1 µM

CNC(=O)c1nc(-c2cccc(CN[C@@H]3c4ccccc4C[C@@H]3OC)c2)cnc1N [Example 468, 3-amino-N-methyl-6-[3-({[(1R,2S)-2-(methyloxy)-2,3-dihydro-1H-inden-1-yl]amino}methyl)phenyl]pyrazine-2-carboxamide]
IC50: 0.05 to 1 µM

CNC(=O)c1nc(-c2cccc(CNC3CCc4c(F)ccc(F)c43)c2)cnc1N (centres unmarked) [Example 469, 3-amino-6-(3-{[(4,7-difluoro-2,3-dihydro-1H-inden-1-yl)amino]methyl}phenyl)-N-methylpyrazine-2-carboxamide]
IC50: 0.05 to 1 µM

CNC(=O)c1nc(-c2cccc(CNC3CCc4c(F)cc(Br)cc43)c2)cnc1N (centres unmarked) [Example 470, 3-amino-6-(3-{[(6-bromo-4-fluoro-2,3-dihydro-1H-inden-1-yl)amino]methyl}phenyl)-N-methylpyrazine-2-carboxamide]
IC50: 0.05 to 1 µM

CNC(=O)c1nc(-c2cccc(CNC3CC(=O)c4ccccc43)c2)cnc1N (centres unmarked) [Example 471, 3-amino-N-methyl-6-(3-{[(3-oxo-2,3-dihydro-1H-inden-1-yl)amino]methyl}phenyl)pyrazine-2-carboxamide]
IC50: 0.05 to 1 µM

CNC(=O)c1nc(-c2cccc(CNC3CCc4cc(-c5ccco5)ccc43)c2)cnc1N (centres unmarked) [Example 472, 3-amino-6-(3-{[(5-furan-2-yl-2,3-dihydro-1H-inden-1-yl)amino]methyl}phenyl)-N-methylpyrazine-2-carboxamide]
IC50: < 0.05 µM

CNC(=O)c1nc(-c2cccc(CNC3CCc4c(F)cccc43)c2)cnc1N (centres unmarked) [Example 473, 3-amino-6-(3-{[(4-fluoro-2,3-dihydro-1H-inden-1-yl)amino]methyl}phenyl)-N-methylpyrazine-2-carboxamide]
IC50: 0.05 to 1 µM

CNC(=O)c1nc(-c2cccc(CNC3CCc4c(F)cc(F)cc43)c2)cnc1N (centres unmarked) [Example 474, 3-amino-6-(3-{[(4,6-difluoro-2,3-dihydro-1H-inden-1-yl)amino]methyl}phenyl)-N-methylpyrazine-2-carboxamide]
IC50: 0.05 to 1 µM

CNC(=O)c1nc(-c2cccc(CNC3CCc4ccc(F)cc43)c2)cnc1N (centres unmarked) [Example 475, 3-amino-6-(3-{[(6-fluoro-2,3-dihydro-1H-inden-1-yl)amino]methyl}phenyl)-N-methylpyrazine-2-carboxamide]
IC50: < 0.05 µM

CNC(=O)c1nc(-c2cccc(CNC3CCc4cc(F)c(F)cc43)c2)cnc1N (centres unmarked) [Example 476, 3-amino-6-(3-{[(5,6-difluoro-2,3-dihydro-1H-inden-1-yl)amino]methyl}phenyl)-N-methylpyrazine-2-carboxamide]
IC50: 0.05 to 1 µM

CNC(=O)c1nc(-c2cccc(CNC3CCc4cc(Cl)ccc43)c2)cnc1N (centres unmarked) [Example 477, 3-amino-6-(3-{[(5-chloro-2,3-dihydro-1H-inden-1-yl)amino]methyl}phenyl)-N-methylpyrazine-2-carboxamide]
IC50: < 0.05 µM

CNC(=O)c1nc(-c2cccc(CNC3CCc4cc(-c5cccs5)ccc43)c2)cnc1N (centres unmarked) [Example 478, 3-amino-N-methyl-6-[3-({[5-(2-thienyl)-2,3-dihydro-1H-inden-1-yl]amino}methyl)phenyl]pyrazine-2-carboxamide]
IC50: < 0.05 µM

CNC(=O)c1nc(-c2cccc(CNC3CCc4cc(F)cc(F)c43)c2)cnc1N (centres unmarked) [Example 479, 3-amino-6-(3-{[(5,7-difluoro-2,3-dihydro-1H-inden-1-yl)amino]methyl}phenyl)-N-methylpyrazine-2-carboxamide]
IC50: 0.05 to 1 µM

CNC(=O)c1nc(-c2cccc(CNC3CCc4cc(-c5ccoc5)ccc43)c2)cnc1N (centres unmarked) [Example 480, 3-amino-6-(3-{[(5-furan-3-yl-2,3-dihydro-1H-inden-1-yl)amino]methyl}phenyl)-N-methylpyrazine-2-carboxamide]
IC50: < 0.05 µM

CNC(=O)c1nc(-c2cccc(CNC3CCc4cc(-c5ccsc5)ccc43)c2)cnc1N (centres unmarked) [Example 481, 3-amino-N-methyl-6-[3-({[5-(3-thienyl)-2,3-dihydro-1H-inden-1-yl]amino}methyl)phenyl]pyrazine-2-carboxamide]
IC50: < 0.05 µM

CNC(=O)c1nc(-c2cccc(CN[C@H]3CCc4c(F)cccc43)c2)cnc1N [Example 482, 3-amino-6-[3-({[(1S)-4-fluoro-2,3-dihydro-1H-inden-1-yl]amino}methyl)phenyl]-N-methylpyrazine-2-carboxamide]
IC50: < 0.05 µM

CNC(=O)c1nc(-c2cccc(CN[C@H]3CCc4cc(F)cc(F)c43)c2)cnc1N [Example 483, 3-amino-6-[3-({[(1S)-5,7-difluoro-2,3-dihydro-1H-inden-1-yl]amino}methyl)phenyl]-N-methylpyrazine-2-carboxamide]
IC50: 0.05 to 1 µM

CNC(=O)c1nc(-c2cccc(CNC3CCc4c(F)ccc(Br)c43)c2)cnc1N (centres unmarked) [Example 484, 3-amino-6-(3-{[(7-bromo-4-fluoro-2,3-dihydro-1H-inden-1-yl)amino]methyl}phenyl)-N-methylpyrazine-2-carboxamide]
IC50: 0.05 to 1 µM
